From publication PMC5855801, “Benzothiophenone Derivatives Targeting Mutant Forms of Estrogen Receptor-α in Hormone-Resistant Breast Cancers” (International Journal of Molecular Sciences, 2018) come the findings set out here.

Structures are written as SMILES.

Assay [1] has as its system ZR75-1 cells. The assay can be described thus: Presto Blue cell viability assay, ZR75-1. In kind it is cell-based, human. As to conditions: ZR75-1, 96 h, two-fold dilution starting at 50 µM. The procedure: The Presto Blue cell viability assay was used to assess the growth inhibitory potential of VPC-16606 on ERα^+ T47D, MCF7, ZR75-1 and TamR3 cells. They were treated for 96 h with a two-fold dilution range of the compound starting at 50 µM.
Cell viability was determined using the Presto Blue cell viability assay (Thermo Fisher Scientific, Waltham, MA, USA). Cells were seeded in clear bottom black-walled 96-well plates at a density of 5 × 10^3 cells/well in 100 μL of their respective media. On the following day, the cells were treated with test compounds (0.001–22.5 μM) in the presence of 1 nM E2 and incubated at 37 °C. After 96 h, 30 μL of Presto Blue reagent was added and incubated for 10 min at 37 °C. The fluorescent signal from viable cells was measured at 590 nm.

Assay [2] concerns the target T1, glucocorticoid receptor (GR) (Homo sapiens, UniProt P04150).
T1 construct: expressed in transfected cells; host or cells: PC3
T1 sequence (P04150 1-777): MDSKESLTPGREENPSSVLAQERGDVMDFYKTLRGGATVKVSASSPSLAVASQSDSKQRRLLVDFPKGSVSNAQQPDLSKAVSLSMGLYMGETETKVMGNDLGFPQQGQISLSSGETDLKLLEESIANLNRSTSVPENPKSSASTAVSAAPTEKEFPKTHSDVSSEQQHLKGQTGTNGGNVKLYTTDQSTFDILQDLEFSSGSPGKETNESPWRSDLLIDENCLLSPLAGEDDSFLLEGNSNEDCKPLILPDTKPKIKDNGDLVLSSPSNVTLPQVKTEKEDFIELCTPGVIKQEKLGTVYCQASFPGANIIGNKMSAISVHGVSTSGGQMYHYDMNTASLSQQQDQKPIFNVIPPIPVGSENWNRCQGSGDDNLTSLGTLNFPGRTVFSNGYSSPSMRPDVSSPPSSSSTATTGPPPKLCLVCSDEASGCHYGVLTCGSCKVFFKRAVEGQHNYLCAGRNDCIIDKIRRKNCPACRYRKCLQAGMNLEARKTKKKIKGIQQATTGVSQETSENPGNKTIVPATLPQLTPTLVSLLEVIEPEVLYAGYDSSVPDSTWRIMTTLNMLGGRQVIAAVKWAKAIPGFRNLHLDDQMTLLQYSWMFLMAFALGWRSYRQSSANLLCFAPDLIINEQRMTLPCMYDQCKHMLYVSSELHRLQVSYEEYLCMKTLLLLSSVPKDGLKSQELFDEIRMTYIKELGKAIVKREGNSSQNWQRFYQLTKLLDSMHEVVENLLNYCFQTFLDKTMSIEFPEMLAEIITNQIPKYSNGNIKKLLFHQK
The assay can be described thus: Luciferase reporter selectivity assay in PC3 cells, GR. To be noted: 24 h. The class given is cell-based. How it is done: Figure 4 Further activity profile of VPC-16606. (A,B) Chromatin immunoprecipitation (ChIP) analysis of ERα binding to the pS2 enhancer, or the GAPDH promoter, in MCF7 cells. Where indicated, ERα was stimulated with 1 nM E2 or dimethyl sulfoxide (DMSO) alone, and the compound was administered at a 6 μM concentration. Sheared chromatin-protein complexes were precipitated with the ERα antibody, reverse cross-linked and analyzed by quantitative PCR. The results are normalized as fold enrichment over precipitation with a rabbit isotype control IgG antibody for each condition tested. Error bars indicate standard error of the mean (SEM) for 3 independent experiments performed in triplicates. Fold enrichment from the compound tested condition (ERα antibody) was statistically compared against DMSO + E2 with a two-tailed t-test (unpaired) *** indicates p-value <0.001. (C) Specificity of VPC-16606 was evaluated in the luciferase reporter assay. PC3 cells were transfected with plasmids expressing androgen receptor (AR), progesterone receptor (PR) or glucocorticoid receptor (GR) along with their responsive luciferase reporter constructs bearing androgen response element (ARE), progesterone response element (PRE) or glucocorticoid response element (GRE), respectively. […] Y-axis represents relative luminescence (RLU) after normalizing to constitutive renilla reporter. […]
For orientation: In a reporter assay the amount or activity of a reporter protein is the signal.

For `CC(=O)N(/N=C1\Sc2c(C)cccc2C1=O)c1ccccc1Cl` [VPC-16606], the “Cell growth (Presto Blue viability)” value in assay [1] is listed as “significantly reduce the growth”. Besides, the “Effect on GR activity (luciferase)” value is on record as “some effect” in assay [2] (50 µM) and “does not affect the activity” in assay [2] (doses up to 25 µM).
